Data on 10 compounds can be found in PubChem BioAssay (NCI).

Among the test systems are 786-0 renal; HCT-15 colon; K-562 leukemia; OVCAR-5 ovarian; SK-MEL-5 melanoma; SR leukemia; SW-620 colon; UACC-62 melanoma; UO-31 renal; SNB-19 CNS.
Holding throughout (assay): NCI anticancer screen, dose series, 48 h

Values joined by “and” are separate entries in the source; they are usually repeats but may differ in a detail not shown here. Equal values may be shown once.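 Method: 48-hour compound exposure of cells in 96-well plates, five concentrations, linear interpolation of endpoints. At the GI50, growth is halved. The concentration for full growth arrest is given as TGI.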

With `CN(C)C1C(=O)C(C(N)=O)=C(O)C2(O)C(=O)C3=C(O)c4c(O)cccc4C(C)(O)C3CC12` (stereo not drawn), the GI50 was 26.1 µM and > 100 µM in the assay with 786-0 renal; 23.2 µM and > 100 µM with K-562 leukemia; 22.4 µM and 56.5 µM with SK-MEL-5 melanoma; 26.4 µM and > 100 µM with SR leukemia; 23.3 µM and > 100 µM in the assay with SW-620 colon; 31.7 µM and 90.9 µM with UACC-62 melanoma. Also, the GI50 with UO-31 renal was 41.9 µM and > 100 µM. For the same compound, the TGI was 63.8 µM and > 100 µM in the assay with 786-0 renal; above 100 µM in the assay with HCT-15 colon; 48.5 µM and > 100 µM in the assay on K-562 leukemia; above 100 µM in the assay with OVCAR-5 ovarian; 39.9 µM and > 100 µM with SK-MEL-5 melanoma; 55.1 µM and > 100 µM in the assay on SR leukemia. In addition, the TGI in the assay with SW-620 colon is 46.1 µM and > 100 µM; with UACC-62 melanoma, above 100 µM; in the assay on UO-31 renal, above 100 µM.

For `O=c1c(-c2nc3ccccc3[nH]2)cc2ccccc2n1Cc1cn(Cc2ccccc2Cl)nn1`, the GI50 with 786-0 renal was 1.66 µM; in the assay on K-562 leukemia it was 3.33 µM; with OVCAR-5 ovarian, 2.1 µM; in the assay with SNB-19 CNS, 4.32 µM; with SR leukemia it was 2.41 µM; in the assay on SW-620 colon, 2.87 µM. Besides, the GI50 is 1.73 µM with UACC-62 melanoma and 1.33 µM with UO-31 renal. The TGI with 786-0 renal stood at 3.27 µM; with K-562 leukemia it was 12.9 µM; in the assay on OVCAR-5 ovarian, 4.78 µM; with SNB-19 CNS, 28.3 µM; in the assay with SR leukemia, 8.64 µM; in the assay on SW-620 colon, 10.4 µM. Moreover, the TGI with UACC-62 melanoma is 3.57 µM; in the assay on UO-31 renal it was 2.88 µM.

Consider `CC(C)=CCc1c(O)c(C(=O)CC(C)C)c(O)c2c(-c3ccccc3)cc(=O)oc12`, for which the GI50 with 786-0 renal is 10.7 µM; in the assay with HCT-15 colon, 7.11 µM; in the assay with K-562 leukemia, 3.05 µM; in the assay with SK-MEL-5 melanoma it was 3.38 µM; in the assay with SNB-19 CNS, 10.3 µM; in the assay with SR leukemia, 12.8 µM. For the same compound, the GI50 in the assay on SW-620 colon was 14.5 µM; in the assay with UACC-62 melanoma, 2.2 µM; with UO-31 renal it was 8.85 µM. Further, the TGI is above 50 µM in the assay with 786-0 renal; above 50 µM in the assay with HCT-15 colon; above 50 µM with K-562 leukemia; 12.3 µM in the assay on SK-MEL-5 melanoma; above 50 µM with SNB-19 CNS; above 50 µM in the assay with SR leukemia. The TGI in the assay with SW-620 colon was above 50 µM; with UACC-62 melanoma, 13.5 µM; in the assay on UO-31 renal it was above 50 µM.

With `C#CCN(Cc1nc2cc(C(F)(F)F)ccc2nc1-c1ccccc1)c1ccc(F)cc1`, the GI50 in the assay with 786-0 renal was 20.4 µM; with HCT-15 colon, 29.5 µM; in the assay with K-562 leukemia it was 19.5 µM; with OVCAR-5 ovarian, 75.6 µM; in the assay with SK-MEL-5 melanoma, 16.8 µM; in the assay with SNB-19 CNS, 34.9 µM. In addition, the GI50 with SW-620 colon is 26.4 µM; in the assay with UACC-62 melanoma, 25.5 µM; with UO-31 renal, 31.2 µM. Further, the TGI in the assay with 786-0 renal is 54 µM; in the assay on HCT-15 colon, above 100 µM; in the assay with K-562 leukemia, above 100 µM; in the assay with OVCAR-5 ovarian, above 100 µM; with SK-MEL-5 melanoma, 33.3 µM; in the assay on SNB-19 CNS it was above 100 µM. In addition, the TGI in the assay with SW-620 colon, in the assay on UACC-62 melanoma and in the assay on UO-31 renal was above 100 µM each time.

For the compound `COc1ccc2c(c1OC)C(C=C(c1ccccc1)c1ccccc1)CN(C)C2` (stereo not drawn), the TGI was 39.5 µM in the assay with 786-0 renal; 33 µM with HCT-15 colon; 25.1 µM in the assay on K-562 leukemia; 61.6 µM with OVCAR-5 ovarian; 29.7 µM in the assay on SK-MEL-5 melanoma; above 100 µM in the assay with SNB-19 CNS. The TGI in the assay on SW-620 colon is 26.2 µM; with UACC-62 melanoma, 40.2 µM; in the assay on UO-31 renal it was above 100 µM.

For `COC(=O)c1ccc(/C=C/S(=O)(=O)c2ccccc2)cc1`, the TGI in the assay on 786-0 renal, in the assay on HCT-15 colon, in the assay with K-562 leukemia, in the assay with OVCAR-5 ovarian, in the assay on SK-MEL-5 melanoma and with SNB-19 CNS was above 100 µM throughout. The TGI with SW-620 colon, in the assay on UACC-62 melanoma and with UO-31 renal was above 100 µM each time.

Take `Cn1cc2ccccc2c1-c1nc(F)nc(Nc2ccc(N)cc2)n1`: the TGI was 64 µM in the assay on 786-0 renal; 26.3 µM with HCT-15 colon; above 100 µM in the assay with K-562 leukemia; 61.9 µM with OVCAR-5 ovarian; 25 µM with SK-MEL-5 melanoma; 95.5 µM with SNB-19 CNS. Moreover, the values for the TGI in the assay with SR leukemia, in the assay on SW-620 colon and in the assay on UO-31 renal were 72.4 µM, 35 µM and 53.8 µM, respectively.

Consider `O=C1c2ccccc2-c2c1c1ccc([N+](=O)[O-])cc1c(=O)n2CCCn1ccnc1`, for which the GI50 in the assay with 786-0 renal was 0.218 µM; in the assay with HCT-15 colon it was 1.06 µM; with K-562 leukemia, 0.886 µM; with OVCAR-5 ovarian, 0.984 µM; in the assay on SK-MEL-5 melanoma, below 0.019 µM; with SNB-19 CNS, 0.358 µM. The figures for the GI50 in the assay with UACC-62 melanoma and in the assay on UO-31 renal were 0.0116 µM and 0.724 µM, respectively. For the same compound, the TGI in the assay with 786-0 renal was 0.894 µM; with HCT-15 colon it was 3.15 µM; in the assay with K-562 leukemia, 5.16 µM; in the assay with OVCAR-5 ovarian, 4.25 µM; in the assay on SK-MEL-5 melanoma it was 0.104 µM; in the assay with SNB-19 CNS it was above 34.4 µM. The values for the TGI with SW-620 colon, in the assay with UACC-62 melanoma and in the assay on UO-31 renal were 0.529 µM, 0.0348 µM and 2.62 µM, respectively.

Take `Clc1ccc(COC(Cn2ccnc2)c2ccc(Cl)cc2Cl)c(Cl)c1` (stereo not drawn): the GI50 in the assay on 786-0 renal is 4.2 µM; in the assay with HCT-15 colon it was 3.94 µM; in the assay with OVCAR-5 ovarian, 9.81 µM; in the assay with SNB-19 CNS, 3.24 µM; in the assay on SR leukemia, 4.34 µM and 2.47 µM and 5.92 µM; with SW-620 colon it was 4.34 µM. Also, the GI50 with UACC-62 melanoma was 2.06 µM; with UO-31 renal, 2.3 µM. Besides, the TGI is 14.5 µM and 21 µM and 22.9 µM in the assay with 786-0 renal; 14.6 µM and 24.8 µM and 26.6 µM in the assay with HCT-15 colon; 21.2 µM and 16.4 µM in the assay on K-562 leukemia; 21.7 µM and 32.4 µM and 25.8 µM in the assay on OVCAR-5 ovarian; 14.6 µM and 29.6 µM and 29.3 µM in the assay on SNB-19 CNS; 18.3 µM and 12.3 µM and 22.4 µM in the assay with SR leukemia. For the same compound, the TGI was 17.5 µM and 29.9 µM and 28.8 µM with SW-620 colon; 10.2 µM and 25 µM and 23.3 µM with UACC-62 melanoma; 12.4 µM and 16.5 µM and 13.6 µM with UO-31 renal.

Turning to `Cc1ccc(-c2cc(=O)c3cc(C)c(C)c(C(=O)O)c3o2)cc1[N+](=O)[O-]`, the TGI with 786-0 renal, with HCT-15 colon, in the assay with K-562 leukemia, with OVCAR-5 ovarian, in the assay with SK-MEL-5 melanoma and in the assay on SNB-19 CNS was above 100 µM in each case. Further, the TGI in the assay with SW-620 colon, in the assay with UACC-62 melanoma and in the assay with UO-31 renal was above 100 µM throughout.
